Assay [1] has as its target T1, apo-PNPO F48A/E50L/R161C/R258L (Homo sapiens, UniProt Q9NVS9, E50L/F48A/R161C/R258L).
T1 construct: together with a main form corresponding to the entire protein (estimated molecular mass of 31.0 ± 0.7 kDa); made in house; host or cells: E. coli BL21(DE3)
T1 sequence (Q9NVS9 1-261 F48A/E50L/R161C/R258L): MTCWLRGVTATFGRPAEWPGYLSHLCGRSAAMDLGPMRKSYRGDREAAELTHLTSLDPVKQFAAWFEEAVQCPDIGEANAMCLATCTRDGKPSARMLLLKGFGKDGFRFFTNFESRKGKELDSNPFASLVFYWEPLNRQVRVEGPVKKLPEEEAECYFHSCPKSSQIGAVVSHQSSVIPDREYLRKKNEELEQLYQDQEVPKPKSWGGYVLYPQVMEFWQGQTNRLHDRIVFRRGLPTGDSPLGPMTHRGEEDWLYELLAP
The assay can be described thus: PLP binding by intrinsic fluorescence, apo F48A/E50L/R161C/R258L. As to conditions: excitation 280 nm, 100 nM enzyme. The source says:
(§1) PLP binding to PNPO can be detected and quantitatively measured using differential scanning fluorimetry (DSF) and also by measuring FMN fluorescence changes. We had previously attributed DSF changes to PLP binding at the active site, while FMN fluorescence changes were attributed to PLP binding at the allosteric site (Barile et al., [2019], [2020]). Previous experiments carried out with the PNPO R161C variant, affecting a residue that is essential for substrate binding and catalysis (and therefore also for PLP binding at the active site), confirms that DSF measurements only report PLP binding at the active site (Barile et al., [2021]; Table 1). […] We expected to observe no FMN fluorescence changes upon titration of the variants with PLP. However, this was not the case, and the dissociation constant values obtained by observing the FMN fluorescence emission were only up to threefold larger in the variants with respect to wild type PNPO (Figure 3). […] To check the second possibility, we measured intrinsic fluorescence changes of wild type and variant apo‐forms (i.e., without FMN) upon PLP titration. […]
(§2) Analyses of PLP binding, based on FMN fluorescence increase observed upon binding of PLP to PNPO, were performed as described in Barile et al. ([2020]). […] Emission spectra were recorded from […], with excitation and emission slits set at 3 and 5 nm, respectively. […]

In assay [2] the target is T2, human PNPO F48A/E50L/R161C/R258L variant (holo-enzyme) (Homo sapiens, UniProt Q9NVS9, E50L/F48A/R161C/R258L).
T2 construct: a main form corresponding to the entire protein; made in house; host or cells: E. coli BL21(DE3)
T2 sequence (Q9NVS9 1-261 F48A/E50L/R161C/R258L): T1 sequence (Q9NVS9 1-261 F48A/E50L/R161C/R258L)
Kind of assay: PLP binding by fluorescence, F48A/E50L/R161C/R258L (35% FMN-saturated). As to conditions: text: titrated by exciting at 280 nm.
Source text: as §1, §2

The target in assay [3] is T3, human PNPO F48A/E50L/R258L variant (Homo sapiens, UniProt Q9NVS9, E50L/F48A/R258L).
T3 construct: a main form corresponding to the entire protein; made in house; host or cells: E. coli BL21(DE3)
T3 sequence (Q9NVS9 1-261 F48A/E50L/R258L): T1 sequence (Q9NVS9 1-261 F48A/E50L/R161C/R258L) with C161R
The assay can be described thus: PLP binding by DSF, triple variant. The conditions noted are these: 50 mM Na-HEPES pH 7.6, 2 μM enzyme.
Source text: as §1
FIGURE 2 DSF measurements with F48A (a), F48A/E50L/R258L (b), F48A/E50L/H248N/R258L (c), and 1‐31del PNPO variants in the presence of different PLP concentrations. Upper panels: Fluorescence change is expressed as fractional variation as a function of temperature. […]
On the technique in general: DSF heats the sample and reads unfolding from a dye or from intrinsic fluorescence.

Another assay addresses T4, human PNPO wild type (Homo sapiens, UniProt Q9NVS9).
T4 sequence (Q9NVS9 1-261): T1 sequence (Q9NVS9 1-261 F48A/E50L/R161C/R258L) with A48F, L50E, C161R, L258R
Details: a main form corresponding to the entire protein; made in house; host or cells: E. coli BL21(DE3); method as in Barile et al. ([2020]). As to conditions: DSF, ref Barile et al. ([2020]), read-out: PLP binding KD^DSF; cited from earlier work.

Positions count from the first letter of the chain named. Values joined by “and” are separate entries in the source; they are usually repeats but may differ in a detail not shown here. Identical values can stand only once. “Also recorded” adds a separate entry of the source.

By Kd is commonly meant the equilibrium constant for the complex coming apart. In the case of `Cc1ncc(COP(=O)(O)O)c(C=O)c1O` [PLP, pyridoxal 5′‐phosphate], the “Apo-enzyme PLP binding KD^FLUO” value in assay [1] is “no variation in the emitted fluorescence was observed; also recorded: No binding”. Moreover, the “PLP binding KD^FLUO” value in assay [2] is “no variation in the emitted fluorescence was observed; also recorded: No binding”. The dissociation constant (Kd) is 6.28 µM and 6.3 µM in assay [3]; 3.2 ± 0.2 µM on human PNPO wild type.
